Experimental data as given in US7776924B2, “Nitroaniline-based alkylating agents and their use as prodrugs” (Auckland Uniservices Limited, priority 2002, dated 2010).
Marks after values point to notes of the source that are not given here.

Tests used:
SC3.2 = test: Cytotoxicity in NTR-transfected (NR+) human ovarian cell line SC3.2; assay type: cell-based; settings: for IC50: SC3.2 NTR-transfected, 18 h exposure; for Ratio = IC50(NR−)/IC50(NR+) Human Ovarian: SKOV3 / SC3.2, 18 h exposure
WIDR = test: Cytotoxicity in wild-type (NR−) human colon cell line WIDR; assay type: cell-based
WC14.10 = test: Cytotoxicity in NTR-transfected (NR+) human colon cell line WC14.10; assay type: cell-based; settings: for IC50: WC14.10 NTR-transfected
SKOV3 = test: Cytotoxicity in wild-type (NR−) human ovarian cell line SKOV3; assay type: cell-based
[1] = tested on: A549 human lung carcinoma cells; test: Cytotoxicity in oxic and anoxic wild-type A549 human lung carcinoma cells; assay type: cell-based; settings: 4 h exposure; for IC50: anoxic, read-out: IC50 WT anoxic
[2] = tested on: A549 transfected with human cytochrome P450 reductase (P450R); test: Cytotoxicity in oxic and anoxic A549 cells transfected with human cytochrome P450 reductase; assay type: cell-based; settings: 4 h exposure; for IC50: anoxic
[3] = Friedlos et al., J. Med. Chem. 1997, 40, 1270; cited from earlier work

| SMILES | IC50 (SC3.2) | Ratio = IC50(NR−)/IC50(NR+) Human Ovarian (SC3.2) | IC50 (WIDR; 18 h exposure) | IC50 (WC14.10; 18 h exposure) | Ratio = IC50(NR−)/IC50(NR+) Human colon (WC14.10; WIDR / WC14.10, 18 h exposure) | IC50 (SKOV3; 18 h exposure) | WT Ratio = IC50(aerobic)/IC50(anoxic) [1] | IC50 [1] | P450R ratio = IC50(aerobic)/IC50(anoxic) [2] | IC50 [2] | IC50 (WIDR; 4 h exposure) | IC50 (WC14.10; 4 h exposure) | Ratio = IC50(NR−)/IC50(NR+) Human colon (WC14.10; WIDR / WC14.10, 4 h exposure) | melting point | IC50 (SC3.2; Homo sapiens) | IC50 (WIDR; Homo sapiens, 18 h exposure) | IC50 (WC14.10; Homo sapiens, 18 h exposure) | IC50 (SKOV3; Homo sapiens, SK-OV-3, 18 h exposure) | potency as described in the literature [3] |
| --- | --- | --- | --- | --- | --- | --- | --- | --- | --- | --- | --- | --- | --- | --- | --- | --- | --- | --- | --- |
| CS(=O)(=O)OCCN(CCBr)c1cc(C(=O)NCCO)c([N+](=O)[O-])cc1[N+](=O)[O-] [IIa5, 2-((2-Bromoethyl)5-{[(2-hydroxyethyl)amino]carbonyl}-2,4-dinitroanilino)ethyl methanesulfonate] | 0.61 µM | 470 | 192 µM | 0.77 µM | 250 | 286 µM | 5.2 | 139 µM | 9.9 | 73 µM | – | – | – | – | – | – | – | – | – |
| CS(=O)(=O)OCCN(CCBr)c1c(C(=O)NCCO)cc([N+](=O)[O-])cc1[N+](=O)[O-] [IIb3, 2-((2-Bromoethyl)-2-{[(2-hydroxyethyl)amino]carbonyl}-4,6-dinitroanilino)ethyl methanesulfonate] | 0.04 µM | 142 | 3.7 µM | 0.06 µM | 66 | 5.2 µM | 26 | 2.3 µM | 133 | 0.28 µM | – | – | – | – | – | – | – | – | – |
| CS(=O)(=O)OCCN(CCI)c1c(C(=O)NCCO)cc([N+](=O)[O-])cc1[N+](=O)[O-] [IIb4, 2-((2-Iodoethyl)-2-{[(2-hydroxyethyl)amino]carbonyl}-4,6-dinitroanilino)ethyl methanesulfonate] | – | – | – | – | – | – | 7 | 4.5 µM | 95 | 0.45 µM | 9 µM | 0.29 µM | 31^f | – | – | – | – | – | – |
| CC(O)CNC(=O)c1cc([N+](=O)[O-])cc([N+](=O)[O-])c1N(CCBr)CCOS(C)(=O)=O (stereo not drawn) [IIb5, 2-((2-Bromoethyl)-2-{[(2-hydroxypropyl)amino]carbonyl}-4,6-dinitroanilino)ethyl methanesulfonate] | – | – | – | – | – | – | 19 | 4 µM | 150 | 0.34 µM | 2.9 µM | 0.25 µM | 12^f | – | – | – | – | – | – |
| COC(=O)CCNC(=O)c1cc([N+](=O)[O-])cc([N+](=O)[O-])c1N(CCCl)CCOS(C)(=O)=O [IIb8, Methyl 3-{[2-((2-chloroethyl){2-[(methylsulfonyl)oxy]ethyl}amino)-3,5-dinitrobenzoyl]amino}propanoate] | – | 51 | – | – | 13 | – | – | – | – | – | – | – | – | 128 to 130 °C | 0.19 µM | 4.3 µM | 0.36 µM | 9.7 µM | – |
| CS(=O)(=O)OCCN(CCBr)c1c([N+](=O)[O-])ccc(C(=O)NCCO)c1[N+](=O)[O-] [IIc3, 2-((2-Bromoethyl)-3-{[(2-hydroxyethyl)amino]carbonyl}-2,6-dinitroanilino)ethyl methanesulfonate] | – | – | – | – | – | – | 20 | 28 µM | 146 | 2.9 µM | 425 µM | 5.1 µM | 83^f | – | – | – | – | – | – |
| CS(=O)(=O)OCCN(CCCl)c1ccc([N+](=O)[O-])c(C(=O)NCCCO)c1[N+](=O)[O-] [IIc4, 2-((2-Chloroethyl)-3-{[(3-hydroxypropyl)amino]carbonyl}-2,4-dinitroanilino)ethyl methanesulfonate] | 1.6 µM | 549 | 392 µM | 2.6 µM | 215 | 800 µM | 26 | 82 µM | 108 | 7.3 µM | – | – | – | – | – | – | – | – | – |
| CS(=O)(=O)OCCN(CCBr)c1c([N+](=O)[O-])ccc(C(=O)NCCCO)c1[N+](=O)[O-] [IIc5, 2-((2-Bromoethyl)-3-{[(3-hydroxypropyl)amino]carbonyl}-2,6-dinitroanilino)ethyl methanesulfonate] | 0.57 µM | 497 | 209 µM | 0.85 µM | 301 | 280 µM | 30 | 52 µM | 134 | 4.5 µM | – | – | – | – | – | – | – | – | – |
| CS(=O)(=O)OCCN(CCCl)c1cc(C(N)=O)c([N+](=O)[O-])cc1[N+](=O)[O-] [No 5, 2-[5-(aminocarbonyl)(2-chloroethyl)-2,4-dinitroanilino]ethyl methanesulfonate] | – | – | – | – | – | – | – | – | – | – | – | – | – | – | – | – | – | – | not sufficiently potent for a full biological evaluation to be conducted |
